Read-outs that look alike come from different tables or passages of the source.
Assay: Pharmacokinetics of AT and NT in healthy volunteers after a single dose of 25 mg amitriptyline
Type: in vivo, human
Settings: healthy volunteers; for half-life / Tmax / AUC(0-inf) / Cmax / AUC(0-t): human, plasma, po, 25 mg; for half-life / Tmax / AUC(0-inf) / Cmax / Vz / CL / AUC(0-t): single oral 25 mg AT; for AUC(0-inf): read-out: AUCinf; for AUC(0-t): read-out: AUC48h
Description: In order to enrich the study sample with the less frequent functionally deficient OCT1 variants, participants were selected based on OCT1 genotype from an internal database at the Institute of Clinical Pharmacology of the University Medical Center Göttingen. All volunteers who are listed in the internal database had agreed to it and the database was approved by the ethics committee of the University of Göttingen. […] Additional subjects with heterozygous genotypes were included to provide a better understanding of the effects of specific variants and the mode of inheritance. All volunteers gave their written informed consent before participation in the study. The study was approved by the ethics committee of the University of Göttingen and the German Federal Institute for Drugs and Medical Devices (BfArM). It was registered at the clinical trials databases Clinicaltrials.gov (NCT02054299) and EudraCT (number 2012-003546-33). […] Volunteers who underwent regular drug treatments other than oral contraceptives or who suffered from any relevant chronic illness, as well as pregnant or lactating women, were not included. All subjects were healthy according to a detailed medical history, medical examination, electrocardiogram, urine status and clinical chemistry, and haematology parameters (sodium, potassium, total bilirubin, aspartate aminotransferase, alanine-aminotransferase, creatinine, C-reactive protein, thyroid-stimulating hormone, haemoglobin, erythrocyte, thrombocyte, and leucocyte counts). […] After centrifugation (13,000 rpm, 15 min, room temperature), two-thirds of the supernatant were transferred to a new reaction tube and evaporated at 40°C under nitrogen flow. The residue was reconstituted under shaking in 0.1% methanoic acid and briefly centrifuged before quantification using a Nexera UHPLC system (Shimadzu, Kyoto, Japan) coupled to an API 4000 tandem mass spectrometer (AB Sciex, Darmstadt, Germany). […] PerkinElmer, Rodgau, Germany) with a Phenomenex C18 pre-column (4 × 2 mm, Phenomenex, Aschaffenburg, Germany). […] The lower limit of quantification was 0.5 ng/ml for AT and 0.1 ng/ml for NT. […] The mass spectrometry detection parameters are listed in Supplementary Table S1. For the study in healthy volunteers, the primary endpoints were the AUCs of plasma AT and NT concentrations. Secondary endpoints were the other pharmacokinetic parameters of AT and NT, as well as heart rate, blood pressure, pupil size effects, and possible adverse events (headache, fatigue, visual or hearing impairments, restlessness, nausea, dizziness, dry mouth, tremor, as well as sensations of hypothermia and heart palpitations determined using a visual analogue scale test). Pharmacokinetic parameters were calculated by non-compartmental analysis using Phoenix 64 WinNonlin version 6.3 (Certara Inc., Princeton, NJ, United States). AUCinf of AT was calculated from the time of dosing using the linear/log trapezoidal rule and extrapolated to infinity based on the last predicted concentration and using the terminal elimination rate constant (lambda z). AUC of NT was calculated from the time of dosing until the last measurement at 48 h using the linear/log trapezoidal rule, as a decline in NT concentrations was not observed in some subjects and extrapolation to infinity thus not possible.

[1] = both sexes, CYP2D6 activity 1.5 (n = 6), mean
[2] = both sexes, CYP2D6 activity 2 (n = 11), mean
[3] = both sexes, CYP2D6 activity 2.5 (n = 1), mean
[4] = both sexes, CYP2D6 activity 3 (n = 2), mean
[5] = CYP2C19 activity score 0 (n = 1), mean
[6] = CYP2C19 activity score 3 (n = 1), mean

- half-life (both sexes, CYP2D6 activity 1 (n = 10), mean): 21.4 h
- Tmax [1]: 3.7 h
- half-life [1]: 19.8 h
- Tmax [2]: 3.4 h
- half-life [2]: 19.5 h
- Tmax [3]: 6 h
- half-life [3]: 14 h
- Tmax [4]: 2 h
- half-life [4]: 20.6 h
- AUC(0-inf) (both sexes, OCT1 genotype *1 / *1 (n 14), mean ± standard deviation): 243 ± 88 ng·h/mL
- AUC(0-inf) (both sexes, OCT1 genotype *1 / *2 (n 3), mean ± standard deviation): 273 ± 59 ng·h/mL
- AUC(0-inf) (both sexes, OCT1 genotype *1 / *3 (n 4), mean ± standard deviation): 216 ± 87 ng·h/mL
- AUC(0-inf) (both sexes, OCT1 genotype *1 / *4 (n 2), mean ± standard deviation): 187 ± 49 ng·h/mL
- AUC(0-inf) (both sexes, OCT1 genotype *2 / *2 (n 3), mean ± standard deviation): 202 ± 92 ng·h/mL
- AUC(0-inf) (both sexes, OCT1 genotype *2 / *3 (n 4), mean ± standard deviation): 189 ± 53 ng·h/mL
- AUC(0-inf) (both sexes, OCT1 genotype *2 / *5 (n 1)): 298 ng·h/mL
- AUC(0-inf) (both sexes, OCT1 genotype *3 / *3 (n 3), mean ± standard deviation): 172 ± 28 ng·h/mL
- AUC(0-inf) (both sexes, OCT1 genotype *3 / *4 (n 1)): 215 ng·h/mL
- Cmax (both sexes, read-out: average Cmax): 39 nM
- Cmax (both sexes, read-out: average Cmax (average peak plasma concentration)): 10.7 ng/mL
- peak concentration of unbound AT (25 mg AT, from peak plasma concentration with 95% plasma protein binding): 0.54 µg/L
- Vz (0 active OCT1 alleles (n = 12)): 3,828 ± 800 L
- Vz (1 active OCT1 allele (n = 9)): 3,610 ± 1,633 L
- Vz (2 active OCT1 alleles (n = 14)): 3,401 ± 1,041 L
- CL (CL/F = dose/AUCinf, 0 active OCT1 alleles (n = 12)): 2.3 ± 0.6 L/min
- CL (CL/F = dose/AUCinf, 1 active OCT1 allele (n = 9)): 2.0 ± 0.8 L/min
- CL (CL/F = dose/AUCinf, 2 active OCT1 alleles (n = 14)): 1.9 ± 0.6 L/min
- CL (CL/F, CYP2C19 activity score 0 (n = 1), mean): 1.30 L/min
- CL (CL/F, CYP2C19 activity score 1 (n = 5), mean): 1.94 L/min
- CL (CL/F, CYP2C19 activity score 1.5 (n = 2), mean): 1.5 L/min
- CL (CL/F, CYP2C19 activity score 2 (n = 16), mean): 2.1 L/min
- CL (CL/F, CYP2C19 activity score 2.5 (n = 10), mean): 2.2 L/min
- CL (CL/F, CYP2C19 activity score 3 (n = 1), mean): 1.54 L/min
- CL (CL/F, CYP2D6 activity 0 (n = 3), mean): 1.45 L/min
- CL (CL/F, CYP2D6 activity 0.5 (n = 2), mean): 2.09 L/min
- CL (CL/F, CYP2D6 activity 1 (n = 10), mean): 1.81 L/min
- CL (CL/F, CYP2D6 activity 1.5 (n = 6), mean): 2.03 L/min
- CL (CL/F, CYP2D6 activity 2 (n = 11), mean): 2.25 L/min
- CL (CL/F, CYP2D6 activity 2.5 (n = 1), mean): 2.64 L/min
- CL (CL/F, CYP2D6 activity 3 (n = 2), mean): 2.92 L/min
- Vz [5]: 3,004 L
- Vz (CYP2C19 activity score 1 (n = 5), mean): 3,525 L
- Vz (CYP2C19 activity score 1.5 (n = 2), mean): 2,559 L
- Vz (CYP2C19 activity score 2 (n = 16), mean): 3,696 L
- Vz (CYP2C19 activity score 2.5 (n = 10), mean): 3,740 L
- Vz [6]: 3,762 L
- Vz (CYP2D6 activity 0 (n = 3), mean): 2,982 L
- Vz (CYP2D6 activity 0.5 (n = 2), mean): 4,189 L
- Vz (CYP2D6 activity 1 (n = 10), mean): 3,269 L
- Vz (CYP2D6 activity 1.5 (n = 6), mean): 3,446 L
- Vz (CYP2D6 activity 2 (n = 11), mean): 3,768 L
- Vz (CYP2D6 activity 2.5 (n = 1), mean): 3,192 L
- Vz (CYP2D6 activity 3 (n = 2), mean): 5,361 L
- AUC(0-t) [5]: 229 ng·h/mL
- AUC(0-inf) [5]: 321 ng·h/mL
- Cmax (CYP2C19 activity score 0 (n = 1), mean, read-out: Cmax): 11.5 ng/mL
- AUC(0-t) [6]: 198 ng·h/mL
- AUC(0-inf) [6]: 271 ng·h/mL
- Cmax (CYP2C19 activity score 3 (n = 1), mean, read-out: Cmax): 13.9 ng/mL
- Tmax [5]: 4 h
- half-life [5]: 26.7 h
- Tmax [6]: 2 h
- half-life [6]: 28.3 h
SMILES: CN(C)CCC=C1c2ccccc2CCc2ccccc21 [Amitriptyline, amitriptyline]
